Where “and” joins values, the source holds several entries; their conditions need not be identical. Identical values can stand only once.

The subject of series [1] is C57BL/6 mice. Put plainly: 5′-GNTI-induced scratching. Type of series: in vivo. The settings on record: for number of scratches induced: 30 μg/kg s.c.
Series [2] deals with T1, hKOR (Homo sapiens, UniProt P41145). The settings on record: hKOR-expressing HEK293 cells; cited from earlier work.
For series [3], the target named is T2, rKOR (Rattus norvegicus, UniProt P34975). The following applies: rKOR expressing HEK293; cited from earlier work.
For series [4], the system named is C57BL/6 mice. Put plainly: Warm-water tail-withdrawal assay. Format: in vivo. The settings on record: for analgesic response (increase in tail withdrawal latency): 30 min post-injection, wild type C57BL/6; for change in tail withdrawal latency after norBNI pretreatment: norBNI 10 mg/kg 3–5 days prior.
Series [5] has as its target T1, hKOR. Put plainly: Signaling bias, ERK1/2. The settings on record: ERK1/2 vs p38 phosphorylation, U50,488 as reference. Type of series: cell-based.
For series [6], the system named is C57BL/6 mice. Kind of series: Acute cross-tolerance to U50,488 in warm-water tail-withdrawal assay. Type of series: in vivo. The following applies: 1 mg/kg i.p. pretreatment.
For series [7], the system named is untransfected HEK293 cells. Kind of series: ERK1/2 and p38 phosphorylation in untransfected HEK293 cells. Format: cell-based. The following applies: untransfected HEK293, 1 μM, 5 min (pERK) or 30 min (pp38), n=3.
Series [8] deals with C57BL/6 mice. Kind of series: Locomotor activity. The following applies: 50 μg/kg, n=3; no impairment vs saline (p=0.73).
For series [9], the target named is T2, rKOR. Kind of series: Signaling bias, ERK1/2. Type of series: cell-based, rodent. The following applies: ERK1/2 vs p38 phosphorylation, U50,488 as reference.
Another series deals with rMOR (Rattus norvegicus, UniProt P33535). Kind of series: ERK1/2 phosphorylation. Type of series: cell-based.
Sequence of rMOR (P33535 whole entry): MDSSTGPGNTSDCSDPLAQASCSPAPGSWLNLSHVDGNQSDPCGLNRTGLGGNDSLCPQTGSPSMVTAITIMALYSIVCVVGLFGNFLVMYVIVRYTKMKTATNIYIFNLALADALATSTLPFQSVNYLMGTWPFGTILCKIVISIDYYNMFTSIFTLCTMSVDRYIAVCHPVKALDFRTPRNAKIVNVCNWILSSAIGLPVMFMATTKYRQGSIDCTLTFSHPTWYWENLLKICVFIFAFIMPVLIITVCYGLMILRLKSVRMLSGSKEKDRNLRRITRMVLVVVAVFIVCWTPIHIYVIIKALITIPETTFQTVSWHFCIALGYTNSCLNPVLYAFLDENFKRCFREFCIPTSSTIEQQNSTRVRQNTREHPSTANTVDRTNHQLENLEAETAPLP

T1 sequence (P41145 whole entry): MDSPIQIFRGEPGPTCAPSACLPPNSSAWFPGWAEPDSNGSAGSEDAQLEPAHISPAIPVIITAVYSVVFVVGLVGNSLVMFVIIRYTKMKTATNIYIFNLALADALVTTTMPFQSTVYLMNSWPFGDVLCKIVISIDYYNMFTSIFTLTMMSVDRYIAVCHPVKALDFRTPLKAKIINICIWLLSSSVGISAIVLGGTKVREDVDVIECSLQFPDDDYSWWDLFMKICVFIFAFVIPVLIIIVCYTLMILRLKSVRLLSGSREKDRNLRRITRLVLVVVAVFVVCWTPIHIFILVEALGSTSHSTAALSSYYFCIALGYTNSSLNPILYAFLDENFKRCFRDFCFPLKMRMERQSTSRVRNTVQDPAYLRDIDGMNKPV
T2 sequence (P34975 whole entry): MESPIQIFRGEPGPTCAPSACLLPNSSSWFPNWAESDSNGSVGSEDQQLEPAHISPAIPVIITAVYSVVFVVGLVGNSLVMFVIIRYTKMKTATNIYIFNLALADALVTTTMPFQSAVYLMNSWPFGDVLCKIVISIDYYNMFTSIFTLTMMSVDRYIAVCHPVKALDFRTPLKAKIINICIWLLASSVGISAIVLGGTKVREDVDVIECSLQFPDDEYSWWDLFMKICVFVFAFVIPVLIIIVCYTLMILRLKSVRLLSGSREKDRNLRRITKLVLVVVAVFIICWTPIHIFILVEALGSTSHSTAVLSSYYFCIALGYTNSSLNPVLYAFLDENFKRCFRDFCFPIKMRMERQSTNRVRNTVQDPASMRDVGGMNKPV

`NC(N)=Nc1ccc2[nH]c3c(c2c1)C[C@@]1(O)[C@H]2Cc4ccc(O)c5c4[C@@]1(CCN2CC1CC1)[C@H]3O5` [5′-GNTI]: the “number of scratches induced” value with C57BL/6 mice [1] (KOR−/− mice, n=8) was determined as 550 ± 84 times in 30 min; in the series with C57BL/6 mice [1] (wild type mice, n=10), 566 ± 60 times in 30 min.
With `Oc1ccc2c(c1)[C@@]13CCCC[C@@]1(O)[C@@H](C2)N(CC1CCC1)CC3` [Butorphanol], the “signaling bias (in words)” value was “p38-biased” on hKOR [2] and “G protein biased” on rKOR [3].
For `CN(C(=O)/C=C/c1ccoc1)[C@@H]1CC[C@@]2(O)[C@H]3Cc4ccc(O)c5c4[C@@]2(CCN3CC2CC2)[C@H]1O5` [Nalfurafine, (2E)-N-[(5α,6β)-17-(cyclopropylmethyl)-3,14-dihydroxy-4,5-epoxymorphinan-6-yl]-3-(3-furyl)-N methylacrylamide], the “analgesic response (increase in tail withdrawal latency)” value with C57BL/6 mice [4] (50 μg/kg i.p.) was 1.5 ± 0.7 s; in the series on C57BL/6 mice [4] (150 μg/kg i.p.), 1.7 ± 0.4 s. The “change in tail withdrawal latency after norBNI pretreatment” value is given as 0.6 ± 0.1 s with C57BL/6 mice [4] (50 μg/kg) and 0.7 ± 0.2 s with C57BL/6 mice [4] (150 μg/kg). In addition, the “ΔΔlog(RA) Mean (SEM)” value on hKOR [5] is recorded as 3.2 (1.02); at rKOR [9] it was 1.15 (0.74). Besides, the “cross-tolerance: effect of pretreatment on U50,488-induced analgesia” value in the series with C57BL/6 mice [6] (3 h before U50,488 15 mg/kg i.p.) is given as “significantly decreased U50,488-induced analgesia”; in the series with C57BL/6 mice [6] (24 h before U50,488 15 mg/kg i.p.), “lack of residual analgesic tolerance”. For the same compound, the “increase in ERK1/2 or p38 phosphorylation” value in series [7] was “No significant increase”. In the series on C57BL/6 mice [8], the “general locomotor activity, distance moved over 30 min” value worked out at 3531 ± 1215 cm. Further, the “5′-GNTI-induced scratching after pretreatment” value with C57BL/6 mice [1] (20 μg/kg s.c. 20 min prior to 5′-GNTI, wild type C57BL/6, n=10, not significant) amounted to 556 ± 67 scratches in 30 min; in the series with C57BL/6 mice [1] (50 μg/kg s.c. 20 min prior to 5′-GNTI 30 μg/kg, KOR−/− mice, n=8, not significant), 580 ± 16 times in 30 min; in the series with C57BL/6 mice [1] (50 μg/kg s.c. 20 min prior to 5′-GNTI 30 μg/kg, MOR−/− mice, n=8) it was 99 ± 40 times in 30 min; with C57BL/6 mice [1] (50 μg/kg s.c. 20 min prior to 5′-GNTI 30 μg/kg, wild type, n=9), 241±33 times in 30 min. Further, the Bias factor on rKOR [9] is 7 and 7.2. For the same compound, at rMOR, the EC50 (in general, the concentration giving half of the maximal effect) was 7.9 nM.
As for `CC(C)=CCN1CCC2(C)c3cc(O)ccc3CC1C2C` (stereo not shown) [Pentazocine], the “signaling bias (in words)” value is recorded as “p38-biased” on hKOR [2] and “unbiased” on rKOR [3]. In addition, the figures for the Bias factor on hKOR [5] and on rKOR [9] were 0.62 and 1.4, respectively. Moreover, the “ΔΔlog(RA) Mean (SEM)” value is given as −0.20 (0.78) on hKOR [5] and 0.14 (0.79) at rKOR [9].
As for `Oc1ccc2c3c1O[C@H]1c4[nH]c5c(c4C[C@@]4(O)[C@@H](C2)N(CC2CC2)CC[C@]314)C[C@@]1(O)[C@H]2Cc3ccc(O)c4c3[C@@]1(CCN2CC1CC1)[C@H]5O4` [norBNI, norbinaltorphimine], the “effect on U50,488-mediated increase in withdrawal latency” value in the series on C57BL/6 mice [4] (norBNI 10 mg/kg 3–5 days prior to U50,488, p < 0.01) is listed as “blocked”. The “effect on nalfurafine-mediated increase in withdrawal latency” value in the series on C57BL/6 mice [4] (norBNI 10 mg/kg 3–5 days prior to nalfurafine, p < 0.05) is given as “blocked”.

(Values after PMC5779083 (Cellular signalling, 2017).)
